Measurements taken from patent US7855076B2, “Use of discoidin domain receptor 1 (DDR1) and agents that affect the DDR1/collagen pathway” (The United States of America as represented by the …, priority 2002, dated 2010).

What was measured:
Format in all cases: cell-based, human
NF-κB = assay: Nuclear translocation of NF-κB by EMSA; conditions: DDR1b-overexpressing cells on collagen-coated plates
Protocol: Nuclear translocation of NF-κB was examined by EMSA. Nuclear extracts were prepared by a method previously reported (Ueda et al., J. Biol. Chem. 272:31092, 1997), and aliquots were frozen at −80° C. For EMSA, end-labeled ^32P-oligonucleotide probes corresponding to the NF-KB binding site of the Ig κ-chain (5′-[…]-3′) (SEQ ID NO: 15) or MCP-1 (A2 site; 5′-[…]-3′) (SEQ ID NO: 16) gene were used. Each probe was incubated with 5 μg of nuclear extracts in 20 μl of binding cocktail (50 mM Tris-HCl, pH 7.4, 25 MM MgCl2, 0.5 mM DTT, 50% glycerol) at 4° C. for 15 minutes. The DNA-protein complexes were resolved on a 5% polyacrylanide gel. The dried gels were exposed to X-ray films.

THP-1 cells [1] = assay: Cytokine and chemokine release from PMA-treated THP-1 cells by ELISA
Protocol: The production of DDR1a- or 1b-overexpressing THP-1 cells was previously described (Kamohara et al., FASEB J. 15:2724, 2001). Briefly, the human monocytic leukemic cell line, THP-1, was transduced with control retrovirus containing the vector only (mock-transduced) or retrovirus expressing DDR1a or DDR1b. THP-1 cells transduced by each virus were selected with G418, and cloned by limiting dilution. The cloned THP-1 cells were maintained in RPMI 1640 medium supplemented with 100 μg/ml gentamycin and 10% FCS (complete medium). Cells were plated at 1×10^6/ml and treated with PMA (10 nM) for variable times on uncoated or collagen-coated tissue culture plates for quantification of cytokine or chemokine release.
In addition, the concentration of MCP-1 in the culture supernatant of each cell line was measured by ELISA. The concentration of MCP-1 was measured in the Lymphokine Testing Laboratory, Clinical Services Program, SAIC-Frederick (Frederick, Md.) by using an enzyme-linked immunosorbent assay (ELISA) kit (R&D Systems, Minneapolis, Minn.) specific for the chemokine.
In addition, the concentrations of IL-1β, IL-8, and MIP-1α in the culture supernatants of each cell line were quantified by ELISA (FIG. 6). The concentration of IL-1β, IL-8, and MIP-1α were measured in the Lymphokine Testing Laboratory, Clinical Services Program, SAIC-Frederick (Frederick, Md.) by using enzyme-linked immunosorbent assay (ELISA) kits (R&D Systems, Minneapolis, Minn.) specific for each human cytokine and chemokine. […]

THP-1 cells [2] = assay: Flow cytometry of HLA-DR, CD11c, CD14, CD40 on PMA-treated THP-1 cells
Protocol: FIG. 5 is a graph showing the effects of collagen-activation of two DDR1 isoforms on the expression of CD11c, CD14, and CD40. Each cell line was plated at 5×10^6 cells/ml on either uncoated or collagen-coated plates and incubated at 37° C. for 24 hours in the presence of 10 nM PMA. Anti-1β integrin antibody (10 μg/ml) was used to block the effect of 1β integrin-collagen interaction. The percentage of CD11c, CD14, or CD40-positive cells is shown. Data are presented as the mean ±SD from three independent experiments.
Parental, mock, DDR1a-overexpressing, or DDR1b overexpressing THP-1 cells were plated at 5×10^6 cells/ml on either uncoated or collagen-coated plates and incubated at 37° C. for 24 or 48 hours in the presence of 10 nM PMA. One hundred thousand cells were suspended in 50 μl of cold PBS containing 0.1% NaN3, […] BSA and 200 μg/ml human IgG in a Falcon 2052 tube, and incubated for 10 minutes on ice. One μg of mouse monoclonal antibody against CD11c, CD14 CD40, or HLA-DR, or control mouse IgG were added to each tube and the cells were incubated for another 15 minutes on ice. The cells were washed with PBS, and then incubated with 1 μg of FITC-conjugated goat anti-mouse IgG for 15 minutes on ice. At the end of incubation, propidium iodide (PI) (100 μM) was added to each tube. The cells were washed by PBS, and subsequently analyzed by using a FACS scan (Becton Dickinson). Dead cells, determined by the incorporation of PI, were gated out. Results were processed by using the Cellquest software (Becton Dickinson).
The cells were then rinsed three times with RPMI 1640 containing 10% FCS, and incubated either with the p38 MAP kinase inhibitor SB203580, the MEK (MAP or ERK kinase) ½ inhibitor PD98059, or dimethylsulfoxide (DMSO) for 30 minutes, followed by an additional 12 hour incubation in the presence of 10 nM PMA plus collagen. The expression of HLA-DR was analyzed by flow cytometry.

[3] = DDR1b-overexpressing THP-1 cells, PMA, collagen-coated plates, 48 hours
[4] = DDR1b-overexpressing cells, collagen-coated plates, PMA, 24 hours

Compound | increased NF-κB/DNA binding (NF-κB) | collagen-induced up-regulation of IL-1β release (THP-1 cells [1]; [3]) | collagen-induced up-regulation of IL-8 release (THP-1 cells [1]; [3]) | collagen-induced up-regulation of MCP-1 release (THP-1 cells [1]; [3]) | collagen-induced up-regulation of MIP-1α release (THP-1 cells [1]; [3]) | expression of HLA-DR (THP-1 cells [2]; collagen-activated PMA-treated DDR1b-overexpressing cells, 24 hours) | amount of NF-κB/DNA complex (NF-κB) | increase of MCP-1 released on collagen-coated plates (THP-1 cells [1]; PMA-treated DDR1b-overexpressing cells) | cells expressing HLA-DR (THP-1 cells [2]; DDR1b-overexpressing cells, collagen-activated, PMA-treated, 12 hours) | cells expressing HLA-DR (THP-1 cells [2]; DDR1b-overexpressing cells, collagen-coated plates, 10 nM PMA, 24 hour) | cells expressing HLA-DR (THP-1 cells [2]; DDR1b-overexpressing cells, collagen-coated plates, 10 nM PMA, 48 hour) | cells expressing CD11c (THP-1 cells [2]; [4]) | cells expressing CD14 (THP-1 cells [2]; [4]) | cells expressing CD40 (THP-1 cells [2]; [4])
C[S+]([O-])c1ccc(-c2nc(-c3ccncc3)c(-c3ccc(F)cc3)[nH]2)cc1 (centres unmarked) [SB203580] | not affected | inhibited | inhibited | inhibited | inhibited | dose-dependently inhibited |  |  |  |  |  |  |  | 
collagen |  |  |  |  |  |  | significantly increased | approximately 7 fold | Approximately 10% | approximately 25% | Approximately 70% | approximately 53% | ~35% | approximately 19%
